Measured values: patent publication US8952024B2, “Herbicidal pyrimidone derivatives” (E I du Pont de Nemours and Company, priority 2009, dated 2015)

Test system: barnyardgrass (Echinochloa crus-galli)
Experiment: Test A pre-/postemergence plant response
Format: in vivo
Conditions: Postemergence, 125 g ai/ha; 0 to 100 scale where 0 is no effect and 100 is complete control
Procedure, shortened: (§1)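 Pre: directed soil spray on seeded loam/sand blend. Post: same formulation (non-phytotoxic solvent + surfactant) on 2–10 cm plants, 1–2 leaf stage. Greenhouse ~10 d; visual injury score 0–100 vs untreated.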

| SMILES | Plant response rating, Barnyardgrass |
| --- | --- |
| O=C1CCCC(O)=C1C(=O)c1cnc(-c2cccc(F)c2)n(CCC(F)(F)F)c1=O [Compound 208] | 30 |

Same assay, conditions: Postemergence, 500 g ai/ha; visual injury, 0 to 100 scale (0 no effect, 100 complete control), approx. ten days

| SMILES | Barnyardgrass plant response rating |
| --- | --- |
| O=C1CCCC(O)=C1C(=O)c1cnc(-c2cccc(F)c2)n(CCC(F)(F)F)c1=O [Compound 208] | 90 |

Same assay, conditions: Preemergence, 125 g ai/ha; 0 to 100 scale, 0 = no effect, 100 = complete control

| SMILES | Plant response rating, Barnyardgrass |
| --- | --- |
| O=C1CCCC(O)=C1C(=O)c1cnc(-c2cccc(F)c2)n(CCC(F)(F)F)c1=O [Compound 208] | 10 |

Same assay, conditions: Preemergence, 500 g ai/ha; 0 to 100 scale, 0 = no effect, 100 = complete control

| SMILES | Plant response rating, Barnyardgrass |
| --- | --- |
| O=C1CCCC(O)=C1C(=O)c1cnc(-c2cccc(F)c2)n(CCC(F)(F)F)c1=O [Compound 208] | 80 |

Test system: corn (Zea mays)
Experiment: Test A pre-/postemergence plant response
Format: in vivo
Conditions: Postemergence, 125 g ai/ha; 0 to 100 scale where 0 is no effect and 100 is complete control
Procedure, shortened: as §1

| SMILES | Plant response rating, Corn |
| --- | --- |
| O=C1CCCC(O)=C1C(=O)c1cnc(-c2cccc(F)c2)n(CCC(F)(F)F)c1=O [Compound 208] | 0 |

Same assay, conditions: Postemergence, 500 g ai/ha; visual injury, 0 to 100 scale (0 no effect, 100 complete control), approx. ten days

| SMILES | Corn plant response rating |
| --- | --- |
| O=C1CCCC(O)=C1C(=O)c1cnc(-c2cccc(F)c2)n(CCC(F)(F)F)c1=O [Compound 208] | 20 |

Same assay, conditions: Preemergence, 125 g ai/ha; 0 to 100 scale, 0 = no effect, 100 = complete control

| SMILES | Plant response rating, Corn |
| --- | --- |
| O=C1CCCC(O)=C1C(=O)c1cnc(-c2cccc(F)c2)n(CCC(F)(F)F)c1=O [Compound 208] | 0 |

Same assay, conditions: Preemergence, 500 g ai/ha; 0 to 100 scale, 0 = no effect, 100 = complete control

| SMILES | Plant response rating, Corn |
| --- | --- |
| O=C1CCCC(O)=C1C(=O)c1cnc(-c2cccc(F)c2)n(CCC(F)(F)F)c1=O [Compound 208] | 20 |

Test system: giant foxtail (Setaria faberii)
Experiment: Test A pre-/postemergence plant response
Format: in vivo
Conditions: Postemergence, 125 g ai/ha; 0 to 100 scale where 0 is no effect and 100 is complete control
Procedure, shortened: as §1

| SMILES | Plant response rating, Foxtail, Giant |
| --- | --- |
| O=C1CCCC(O)=C1C(=O)c1cnc(-c2cccc(F)c2)n(CCC(F)(F)F)c1=O [Compound 208] | 30 |

Same assay, conditions: Postemergence, 500 g ai/ha; visual injury, 0 to 100 scale (0 no effect, 100 complete control), approx. ten days

| SMILES | Foxtail, Giant plant response rating |
| --- | --- |
| O=C1CCCC(O)=C1C(=O)c1cnc(-c2cccc(F)c2)n(CCC(F)(F)F)c1=O [Compound 208] | 80 |

Same assay, conditions: Preemergence, 125 g ai/ha; 0 to 100 scale, 0 = no effect, 100 = complete control

| SMILES | Plant response rating, Foxtail, Giant |
| --- | --- |
| O=C1CCCC(O)=C1C(=O)c1cnc(-c2cccc(F)c2)n(CCC(F)(F)F)c1=O [Compound 208] | 40 |

Same assay, conditions: Preemergence, 500 g ai/ha; 0 to 100 scale, 0 = no effect, 100 = complete control

| SMILES | Plant response rating, Foxtail, Giant |
| --- | --- |
| O=C1CCCC(O)=C1C(=O)c1cnc(-c2cccc(F)c2)n(CCC(F)(F)F)c1=O [Compound 208] | 70 |

Test system: large crabgrass (Digitaria sanguinalis)
Experiment: Test A pre-/postemergence plant response
Format: in vivo
Conditions: Postemergence, 125 g ai/ha; 0 to 100 scale where 0 is no effect and 100 is complete control
Procedure, shortened: as §1

| SMILES | Plant response rating, Crabgrass, Large |
| --- | --- |
| O=C1CCCC(O)=C1C(=O)c1cnc(-c2cccc(F)c2)n(CCC(F)(F)F)c1=O [Compound 208] | 30 |

Same assay, conditions: Postemergence, 500 g ai/ha; visual injury, 0 to 100 scale (0 no effect, 100 complete control), approx. ten days

| SMILES | Crabgrass, Large plant response rating |
| --- | --- |
| O=C1CCCC(O)=C1C(=O)c1cnc(-c2cccc(F)c2)n(CCC(F)(F)F)c1=O [Compound 208] | 80 |

Same assay, conditions: Preemergence, 125 g ai/ha; 0 to 100 scale, 0 = no effect, 100 = complete control

| SMILES | Plant response rating, Crabgrass, Large |
| --- | --- |
| O=C1CCCC(O)=C1C(=O)c1cnc(-c2cccc(F)c2)n(CCC(F)(F)F)c1=O [Compound 208] | 80 |

Same assay, conditions: Preemergence, 500 g ai/ha; 0 to 100 scale, 0 = no effect, 100 = complete control

| SMILES | Plant response rating, Crabgrass, Large |
| --- | --- |
| O=C1CCCC(O)=C1C(=O)c1cnc(-c2cccc(F)c2)n(CCC(F)(F)F)c1=O [Compound 208] | 100 |

Test system: morningglory (Ipomoea spp.)
Experiment: Test A pre-/postemergence plant response
Format: in vivo
Conditions: Postemergence, 125 g ai/ha; 0 to 100 scale where 0 is no effect and 100 is complete control
Procedure, shortened: as §1

| SMILES | Plant response rating, Morningglory |
| --- | --- |
| O=C1CCCC(O)=C1C(=O)c1cnc(-c2cccc(F)c2)n(CCC(F)(F)F)c1=O [Compound 208] | 50 |

Same assay, conditions: Postemergence, 500 g ai/ha; visual injury, 0 to 100 scale (0 no effect, 100 complete control), approx. ten days

| SMILES | Morningglory plant response rating |
| --- | --- |
| O=C1CCCC(O)=C1C(=O)c1cnc(-c2cccc(F)c2)n(CCC(F)(F)F)c1=O [Compound 208] | 100 |

Same assay, conditions: Preemergence, 125 g ai/ha; 0 to 100 scale, 0 = no effect, 100 = complete control

| SMILES | Plant response rating, Morningglory |
| --- | --- |
| O=C1CCCC(O)=C1C(=O)c1cnc(-c2cccc(F)c2)n(CCC(F)(F)F)c1=O [Compound 208] | 0 |

Same assay, conditions: Preemergence, 500 g ai/ha; 0 to 100 scale, 0 = no effect, 100 = complete control

| SMILES | Plant response rating, Morningglory |
| --- | --- |
| O=C1CCCC(O)=C1C(=O)c1cnc(-c2cccc(F)c2)n(CCC(F)(F)F)c1=O [Compound 208] | 70 |

Test system: pigweed (Amaranthus retroflexus)
Experiment: Test A pre-/postemergence plant response
Format: in vivo
Conditions: Postemergence, 125 g ai/ha; 0 to 100 scale where 0 is no effect and 100 is complete control
Procedure, shortened: as §1

| SMILES | Plant response rating, Pigweed |
| --- | --- |
| O=C1CCCC(O)=C1C(=O)c1cnc(-c2cccc(F)c2)n(CCC(F)(F)F)c1=O [Compound 208] | 80 |

Same assay, conditions: Postemergence, 500 g ai/ha; visual injury, 0 to 100 scale (0 no effect, 100 complete control), approx. ten days

| SMILES | Pigweed plant response rating |
| --- | --- |
| O=C1CCCC(O)=C1C(=O)c1cnc(-c2cccc(F)c2)n(CCC(F)(F)F)c1=O [Compound 208] | 90 |

Same assay, conditions: Preemergence, 125 g ai/ha; 0 to 100 scale, 0 = no effect, 100 = complete control

| SMILES | Plant response rating, Pigweed |
| --- | --- |
| O=C1CCCC(O)=C1C(=O)c1cnc(-c2cccc(F)c2)n(CCC(F)(F)F)c1=O [Compound 208] | 60 |

Same assay, conditions: Preemergence, 500 g ai/ha; 0 to 100 scale, 0 = no effect, 100 = complete control

| SMILES | Plant response rating, Pigweed |
| --- | --- |
| O=C1CCCC(O)=C1C(=O)c1cnc(-c2cccc(F)c2)n(CCC(F)(F)F)c1=O [Compound 208] | 100 |
